For assay [1], the target named is T1, AXL (Homo sapiens, UniProt P30530).
T1 sequence (P30530 26-894): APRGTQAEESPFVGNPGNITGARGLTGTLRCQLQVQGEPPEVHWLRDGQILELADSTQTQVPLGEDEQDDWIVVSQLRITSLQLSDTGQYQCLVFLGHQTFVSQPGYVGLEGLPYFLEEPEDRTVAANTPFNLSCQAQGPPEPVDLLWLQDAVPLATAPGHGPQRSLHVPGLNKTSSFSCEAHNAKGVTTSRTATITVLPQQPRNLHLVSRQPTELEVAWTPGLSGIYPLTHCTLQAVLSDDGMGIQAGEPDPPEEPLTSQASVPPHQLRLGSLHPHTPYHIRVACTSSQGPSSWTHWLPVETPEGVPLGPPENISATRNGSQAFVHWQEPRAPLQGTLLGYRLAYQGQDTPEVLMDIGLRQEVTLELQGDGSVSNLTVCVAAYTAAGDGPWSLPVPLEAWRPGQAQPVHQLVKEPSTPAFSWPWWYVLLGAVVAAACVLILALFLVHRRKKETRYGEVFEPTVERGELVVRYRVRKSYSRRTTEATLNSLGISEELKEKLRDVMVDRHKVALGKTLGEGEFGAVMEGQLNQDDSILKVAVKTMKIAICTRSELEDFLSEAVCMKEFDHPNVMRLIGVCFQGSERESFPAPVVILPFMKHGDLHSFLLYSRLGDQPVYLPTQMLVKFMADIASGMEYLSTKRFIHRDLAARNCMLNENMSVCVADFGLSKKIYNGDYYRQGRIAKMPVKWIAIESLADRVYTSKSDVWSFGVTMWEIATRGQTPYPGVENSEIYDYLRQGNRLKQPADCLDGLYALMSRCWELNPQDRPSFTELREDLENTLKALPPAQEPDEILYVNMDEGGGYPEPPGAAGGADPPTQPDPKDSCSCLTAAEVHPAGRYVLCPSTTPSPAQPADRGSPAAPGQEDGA
Description: TR-FRET kinase activity assay, AXL. Format: biochemical. Particulars: ATP at Km, 60 minutes. Summed up:
(§1)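 Recombinant human kinases, fluorescent peptide substrate, ATP at Km; 1 h RT, pH 7.5. EDTA-quenched, Eu antibody added, TR-FRET read; IC50 determined.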
(In general: Time-resolved FRET reads energy transfer from a long-lived donor to a nearby acceptor.)

Assay [2] has as its target T2, FLT3 (Homo sapiens, UniProt P36888).
T2 sequence (P36888 27-993): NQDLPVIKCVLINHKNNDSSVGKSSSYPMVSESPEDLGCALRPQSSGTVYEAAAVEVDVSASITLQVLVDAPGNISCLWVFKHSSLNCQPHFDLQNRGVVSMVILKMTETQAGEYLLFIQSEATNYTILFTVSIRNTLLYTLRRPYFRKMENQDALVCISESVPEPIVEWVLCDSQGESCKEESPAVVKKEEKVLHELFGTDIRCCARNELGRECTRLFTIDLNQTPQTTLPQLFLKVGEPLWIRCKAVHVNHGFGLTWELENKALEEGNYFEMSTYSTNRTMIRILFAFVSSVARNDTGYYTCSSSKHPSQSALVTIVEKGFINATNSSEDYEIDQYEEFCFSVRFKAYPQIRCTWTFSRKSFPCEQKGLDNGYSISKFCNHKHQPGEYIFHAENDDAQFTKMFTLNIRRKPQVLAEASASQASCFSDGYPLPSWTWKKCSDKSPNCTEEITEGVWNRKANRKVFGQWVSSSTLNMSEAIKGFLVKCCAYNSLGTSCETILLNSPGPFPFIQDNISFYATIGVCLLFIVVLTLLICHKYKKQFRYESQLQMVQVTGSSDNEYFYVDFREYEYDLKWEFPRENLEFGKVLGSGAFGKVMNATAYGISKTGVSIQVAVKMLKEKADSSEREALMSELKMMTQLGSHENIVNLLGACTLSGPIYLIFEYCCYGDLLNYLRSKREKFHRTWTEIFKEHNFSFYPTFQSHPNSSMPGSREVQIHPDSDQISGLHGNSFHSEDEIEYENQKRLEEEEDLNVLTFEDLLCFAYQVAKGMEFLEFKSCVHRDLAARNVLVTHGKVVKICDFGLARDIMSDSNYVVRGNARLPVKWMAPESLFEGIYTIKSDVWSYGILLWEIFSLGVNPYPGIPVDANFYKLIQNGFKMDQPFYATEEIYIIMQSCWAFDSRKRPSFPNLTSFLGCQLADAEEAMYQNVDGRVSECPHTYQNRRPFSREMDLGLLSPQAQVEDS
In words: TR-FRET kinase activity assay, FLT3. The class given is biochemical. As to conditions: ATP at Km, 60 minutes. Put shortly:
as §1

The record followed here is patent US11040981B2, “Pyrrolotriazine compounds and methods of inhibiting TAM kinases” (Syros Pharmaceuticals, Inc., priority 2017, dated 2021).

A value given as a limit tells only on which side of the number the result lay.

Regarding `CC(Nc1ncc2c(-c3cnn(C4COC4)c3)cc(C3CCC(O)CC3)n2n1)c1ccccn1` (centres unmarked) [Compound 544], the IC50 in assay [1] and in assay [2] was 1000 to 10000 nM each time.

For the molecule `COC[C@H](C)Nc1ncc2c(-c3ccnc(N4CCOCC4)c3)cc([C@H]3CC[C@@H](O)CC3)n2n1` [Compound 546], the IC50 – broadly, the point on the concentration scale where inhibition reaches its midpoint – in assay [1] is at most 100 nM; in assay [2], 100 to 1000 nM.

As to `COC[C@H](C)Nc1ncc2c(-c3cnn(C(C)(C)C(=O)N4CCOCC4)c3)cc([C@H]3CC[C@@H](O)CC3)n2n1` [Compound 547], the IC50 is at most 100 nM in assay [1] and 100 to 1000 nM in assay [2].

Turning to `COC[C@H](C)Nc1ncc2c(-c3ccnc(N4CCOCC4)c3)cc([C@H]3CC[C@@](C)(O)CC3)n2n1` [Compound 548], the IC50 in assay [1] is at most 100 nM; in assay [2], 100 to 1000 nM.

`COC[C@H](C)Nc1ncc2c(-c3ccnc(N4CCOCC4)c3)cc([C@H]3CC[C@](C)(O)CC3)n2n1` [Compound 549]: the IC50 is at most 100 nM in assay [1] and 100 to 1000 nM in assay [2].

Consider `COCC(C)Nc1ncc2c(-c3ccc4ocnc4c3)cc(C3CCC(O)CC3)n2n1` (centres unmarked) [Compound 550], for which the IC50 in assay [1] is at most 100 nM; in assay [2], 100 to 1000 nM.

Turning to `COCC(C)Nc1ncc2c(-c3cccc(-c4nnc(C)o4)c3)cc(C3CCC(O)CC3)n2n1` (centres unmarked) [Compound 551], the IC50 in assay [1] was at most 100 nM; in assay [2], 1000 to 10000 nM.

`COCC(C)Nc1ncc2c(-c3ccc4ncoc4c3)cc(C3CCC(O)CC3)n2n1` (centres unmarked) [Compound 552]: the IC50 in assay [1] is at most 100 nM; in assay [2], 100 to 1000 nM.

For the molecule `COCC(C)Nc1ncc2c(-c3ccc4[nH]cnc4c3)cc(C3CCC(O)CC3)n2n1` (centres unmarked) [Compound 553], the figures for the IC50 in assay [1] and in assay [2] were at most 100 nM and 100 to 1000 nM, respectively.

As to `COC[C@H](C)Nc1ncc2c(-c3cnn(C(C)(C)C(=O)N4CC[C@H](O)C4)c3)cc([C@H]3CC[C@H](O)CC3)n2n1` [Compound 554], the IC50 in assay [1] is at most 100 nM; in assay [2], 1000 to 10000 nM.

`COC[C@H](C)Nc1ncc2c(-c3cnn(C(C)(C)C(=O)N4CC[C@@H](O)C4)c3)cc([C@H]3CC[C@H](O)CC3)n2n1` [Compound 555]: the IC50 in assay [1] is at most 100 nM; in assay [2], 1000 to 10000 nM.

On to `COC[C@H](C)Nc1ncc2c(-c3cnn(C(C)(C)C(=O)N4CCOC(C(C)(C)O)C4)c3)cc([C@H]3CC[C@H](O)CC3)n2n1` (some centres unmarked) [Compound 556], for which the IC50 in assay [1] is at most 100 nM; in assay [2], 1000 to 10000 nM.

For `CC(C)(O)C1CN(c2cc(-c3cc([C@H]4CC[C@H](O)CC4)n4nc(NCCOC(F)F)ncc34)ccn2)CCO1` (some centres unmarked) [Compound 557], the half-inhibitory concentration (IC50) in assay [1] is at most 100 nM; in assay [2] it was 100 to 1000 nM.

On to `COC[C@H](C)Nc1ncc2c(-c3ccnc(N4CCO[C@H](C(C)(C)O)C4)c3)cc([C@H]3CC[C@H](O)CC3)n2n1` [Compound 558], for which the IC50 in assay [1] is at most 100 nM; in assay [2], 100 to 1000 nM.

Regarding `COCC(C)Nc1ncc2c(-c3ccnc(N4CCOC(C(C)(C)O)C4)c3)cc(C3CCC(O)CC3)n2n1` (centres unmarked) [Compound 559], the IC50 in assay [1] is at most 100 nM; in assay [2], 100 to 1000 nM.

Regarding `COC[C@H](C)Nc1ncc2c(-c3cnn(C(C)(C)C(=O)N4CCOCC4)c3)cc([C@H]3CC[C@](C)(O)CC3)n2n1` [Compound 560], the IC50 was at most 100 nM in assay [1] and 100 to 1000 nM in assay [2].

`COC[C@H](C)Nc1ncc2c(-c3cnn(C(C)(C)C(=O)N4CCOCC4)c3)cc([C@H]3CC[C@@](C)(O)CC3)n2n1` [Compound 561]: the figures for the IC50 in assay [1] and in assay [2] were at most 100 nM and 100 to 1000 nM, respectively.

On to `COCC(C)Nc1ncc2c(-c3cccc(N4CCOCC4)c3)cc(C3CCC(O)CC3)n2n1` (centres unmarked) [Compound 562], for which the IC50 in assay [1] and in assay [2] was at most 100 nM each time.

With `COC[C@H](C)Nc1ncc2c(-c3cnn(C(C)(C)c4nnc(C5CC5)o4)c3)cc([C@H]3CC[C@H](O)CC3)n2n1` [Compound 563], the IC50 in assay [1] was at most 100 nM; in assay [2] it was 100 to 1000 nM.

For the molecule `COC[C@H](C)Nc1ncc2c(-c3cnn(C4COC4)c3)cc([C@H]3CC[C@@H](O)CC3)n2n1` [Compound 564], the concentration for half-maximal inhibition (IC50) in assay [1] and in assay [2] was at most 100 nM each time.

For the molecule `COC[C@H](C)Nc1ncc2c(-c3ccc(CN4CCN(C)CC4)nc3)cc([C@H]3CC[C@H](O)CC3)n2n1` [Compound 565], the half-maximal inhibitory concentration (IC50) in assay [1] is at most 100 nM; in assay [2], 100 to 1000 nM.

Turning to `COC[C@H](C)Nc1ncc2c(-c3ccnc(C4COC4)c3)cc([C@H]3CC[C@H](O)CC3)n2n1` [Compound 566], the 50% inhibitory concentration (IC50) in assay [1] was at most 100 nM; in assay [2], 100 to 1000 nM.

Regarding `CCS(=O)(=O)N1CC(CC#N)(n2cc(-c3cc([C@H]4CC[C@H](O)CC4)n4nc(N[C@@H](C)COC)ncc34)cn2)C1` [Compound 567], the values for the IC50 in assay [1] and in assay [2] were at most 100 nM and 1000 to 10000 nM, respectively.

In the case of `CC[C@]1(O)CC[C@H](c2cc(-c3ccnc(N4CCOCC4)c3)c3cnc(N[C@@H](C)COC)nn32)CC1` [Compound 568], the values for the IC50 in assay [1] and in assay [2] were at most 100 nM and 100 to 1000 nM, respectively.

Turning to `COC[C@H](C)Nc1ncc2c(-c3cnn(C4COC4)c3)cc([C@@H]3CC[C@@H](O)C(C)(C)C3)n2n1` [Compound 570], the IC50 in assay [1] and in assay [2] was 100 to 1000 nM throughout.

For `COC[C@H](C)Nc1ncc2c(-c3cnn(C4COC4)c3)cc([C@@H]3CC[C@H](O)C(C)(C)C3)n2n1` [Compound 571], the IC50 in assay [1] and in assay [2] was 100 to 1000 nM throughout.

Regarding `COC[C@H](C)Nc1ncc2c(-c3cncc([S@](C)(=N)=O)c3)cc([C@H]3CC[C@@H](O)CC3)n2n1` [Compound 572], the IC50 in assay [1] is 100 to 1000 nM; in assay [2] it was over 10000 nM.

For `COC[C@H](C)Nc1ncc2c(-c3cncc([S@@](C)(=N)=O)c3)cc([C@H]3CC[C@H](O)CC3)n2n1` [Compound 573], the IC50 was 100 to 1000 nM in assay [1] and over 10000 nM in assay [2].

`COC[C@H](C)Nc1ncc2c(-c3ccnc([S@@](C)(=N)=O)c3)cc([C@H]3CC[C@H](O)CC3)n2n1` [Compound 574]: the IC50 in assay [1] lay within 100 to 1000 nM; in assay [2], 1000 to 10000 nM.

Consider `COC[C@H](C)Nc1ncc2c(-c3ccnc([S@](C)(=N)=O)c3)cc([C@H]3CC[C@H](O)CC3)n2n1` [Compound 575], for which the IC50 in assay [1] is 100 to 1000 nM; in assay [2] it was 1000 to 10000 nM.

Take `COC[C@H](C)Nc1ncc2c([C@H]3CC[C@H](C(C)=O)CC3)cc([C@H]3CC[C@H](O)CC3)n2n1` [Compound 576]: the values for the IC50 in assay [1] and in assay [2] were 100 to 1000 nM and 1000 to 10000 nM, respectively.

On to `COC[C@H](C)Nc1ncc2c([C@H]3CC[C@@H](C(=O)N4CCC(F)(F)CC4)CC3)cc([C@H]3CC[C@H](O)CC3)n2n1` [Compound 577], for which the results for the IC50 in assay [1] and in assay [2] were at most 100 nM and 1000 to 10000 nM, respectively.

On to `COC[C@H](C)Nc1ncc2c([C@H]3CC[C@H](C(=O)N4CC5(COC5)C4)CC3)cc([C@H]3CC[C@H](O)CC3)n2n1` [Compound 578], for which the IC50 lay within 100 to 1000 nM in assay [1] and 1000 to 10000 nM in assay [2].

Turning to `COC[C@H](C)Nc1ncc2c([C@H]3CC[C@@H](C(=O)N4CC5(COC5)C4)CC3)cc([C@H]3CC[C@H](O)CC3)n2n1` [Compound 579], the IC50 was 100 to 1000 nM in assay [1] and 1000 to 10000 nM in assay [2].
